Experiment [1] addresses full length recombinant Pim-1 (Homo sapiens (Human), UniProt P11309). Nature of the experiment: Pim enzyme assay (HTRF, phosphorylation of biotinylated-BAD (S112) peptide), Pim-1. It counts as biochemical. On the technique in general: Time-resolved FRET reads energy transfer from a long-lived donor to a nearby acceptor.
Experiment [2] deals with full length recombinant Pim-2 (Homo sapiens (Human), UniProt Q9P1W9). Nature of the experiment: Pim enzyme assay (HTRF, phosphorylation of biotinylated-BAD (S112) peptide), Pim-2. The format is biochemical. Particulars: read-out: Pim2_IC50.
Where [3] appears, read: Pim-1 enzyme assay, read-out: Pim_1_IC50.
[4] abbreviates: HTRF, 10-point curve, high dose 1 uM, 2 h at RT, read-out: Pim_1_IC50.
[5] abbreviates: HTRF, 10-point curve, high dose 1 uM, 45 min at RT.

Read-outs that look alike come from different tables or passages of the source.

full length recombinant Pim-2, sequence (Q9P1W9 whole entry): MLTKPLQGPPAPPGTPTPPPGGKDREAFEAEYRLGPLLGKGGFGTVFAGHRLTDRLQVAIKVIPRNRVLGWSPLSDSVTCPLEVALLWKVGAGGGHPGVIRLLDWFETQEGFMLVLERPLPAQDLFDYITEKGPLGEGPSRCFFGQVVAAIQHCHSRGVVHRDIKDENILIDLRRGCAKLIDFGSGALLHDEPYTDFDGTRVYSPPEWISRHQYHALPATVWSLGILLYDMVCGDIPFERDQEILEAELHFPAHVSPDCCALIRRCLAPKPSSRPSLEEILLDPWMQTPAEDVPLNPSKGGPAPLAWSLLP
full length recombinant Pim-1, sequence (P11309 whole entry): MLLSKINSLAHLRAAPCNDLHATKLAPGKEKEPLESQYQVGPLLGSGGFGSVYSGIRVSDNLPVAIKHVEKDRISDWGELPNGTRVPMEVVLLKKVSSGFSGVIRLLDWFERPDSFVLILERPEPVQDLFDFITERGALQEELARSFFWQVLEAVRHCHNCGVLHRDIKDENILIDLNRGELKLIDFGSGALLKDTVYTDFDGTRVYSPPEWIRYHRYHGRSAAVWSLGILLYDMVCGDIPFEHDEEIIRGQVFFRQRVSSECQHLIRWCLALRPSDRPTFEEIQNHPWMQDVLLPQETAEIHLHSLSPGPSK

Take `CCOc1nc(-c2c[nH]c3ccc(-c4nnc(NC(C)C)o4)cc23)ncc1F` [Example 259, 5-(3-(4-ethoxy-5-fluoro-2-pyrimidinyl)-1H-indol-5-yl)-N-(1-methylethyl)-1,3,4-oxadiazol-2-amine]: the IC50 in experiment [1] (setting [3]) was determined as 30.4 nM; in experiment [2] (Pim-2 enzyme assay), 36.9 nM.

As to `CC(C)Nc1nnc(-c2ccc3[nH]cc(-c4nc(C(=O)NC5CC5)cs4)c3c2)o1` [Example 278, N-cyclopropyl-2-(5-(5-((1-methylethyl)amino)-1,3,4-oxadiazol-2-yl)-1H-indol-3-yl)-1,3-thiazole-4-carboxamide], the figures for the IC50 in experiment [1] (setting [4]) and in experiment [2] (setting [5]) were 186 nM and 408 nM, respectively.

As for `CC(C)Nc1nnc(-c2ccc3[nH]cc(-c4nccc(OC(C)C)n4)c3c2)o1` [Example 60, 5-(3-(4-isopropoxypyrimidin-2-yl)-1H-indol-5-yl)-N-isopropyl-1,3,4-oxadiazol-2-amine], the IC50 in experiment [1] (setting [3]) turned out to be 20.1 nM; in experiment [2] (Pim-2 enzyme assay), 13.5 nM.

On to `CC(C)Nc1nnc(-c2ccc3[nH]cc(-c4nccc(C(N)=O)n4)c3c2)o1` [Example 261, 2-(5-(5-((1-methylethyl)amino)-1,3,4-oxadiazol-2-yl)-1H-indol-3-yl)-4-pyrimidinecarboxamide], for which the values for the IC50 in experiment [1] and in experiment [2] (Pim-2 enzyme assay) were 105 nM and 70.8 nM, respectively.

For `CS(=O)(=O)c1ccc(-c2c[nH]c3ccc(-c4nnc(N)o4)cc23)nc1` [Example 284, 5-(3-(5-(methylsulfonyl)-2-pyridinyl)-1H-indol-5-yl)-1,3,4-oxadiazol-2-amine 2,2,2-trifluoroacetate], the IC50 in experiment [1] (setting [4]) turned out to be 515 nM; in experiment [2], 555 nM.

Turning to `CC(C)Nc1nnc(-c2ccc3[nH]cc(-c4nc(C5CC5)n[nH]4)c3c2)o1` [Example 263, 5-(3-(3-cyclopropyl-1H-1,2,4-triazol-5-yl)-1H-indol-5-yl)-N-(1-methylethyl)-1,3,4-oxadiazol-2-amine], the results for the IC50 in experiment [1] (setting [3]) and in experiment [2] (Pim-2 enzyme assay) were 241 nM and 383 nM, respectively.

As for `Nc1nnc(-c2ccc3[nH]cc(-c4cc(C(F)(F)F)ncn4)c3c2)o1` [Example 95, 5-(3-(6-(trifluoromethyl)-4-pyrimidinyl)-1H-indol-5-yl)-1,3,4-oxadiazol-2-amine], the IC50 is > 1000 nM in experiment [1] (setting [3]) and 838 nM in experiment [2] (Pim-2 enzyme assay).

In the case of `CC(C)Nc1cncc(-c2c[nH]c3ccc(-c4nsc(N)n4)cc23)n1` [Example 66, 3-(3-(6-(isopropylamino)pyrazin-2-yl)-1H-indol-5-yl)-1,2,4-thiadiazol-5-amine], the IC50 in experiment [1] (setting [3]) is 20.1 nM; in experiment [2] (Pim-2 enzyme assay) it was 649 nM.

In the case of `COc1ccnc(-c2c[nH]c3ccc(-c4nnc(NC(C)C)o4)cc23)n1` [Example 59, N-isopropyl-5-(3-(4-methoxypyrimidin-2-yl)-1H-indol-5-yl)-1,3,4-oxadiazol-2-amine], the IC50 was 30.4 nM in experiment [1] (setting [3]) and 16.7 nM in experiment [2] (Pim-2 enzyme assay).

As for `COc1nccc(-c2c[nH]c3ccc(-c4nnc(NC(C)C)o4)cc23)n1` [Example 297, 5-(3-(2-methoxy-4-pyrimidinyl)-1H-indol-5-yl)-N-(1-methylethyl)-1,3,4-oxadiazol-2-amine], the IC50 in experiment [1] (setting [4]) is 39.2 nM; in experiment [2] (setting [5]) it was 73.8 nM.

Take `CNC(=O)c1cncc(-c2c[nH]c3ccc(-c4nnc(NC(C)C)o4)cc23)c1` [Example 286, 5-(5-(5-(isopropylamino)-1,3,4-oxadiazol-2-yl)-1H-indol-3-yl)-N-methylnicotinamide]: the IC50 in experiment [1] (setting [4]) was 713 nM; in experiment [2] (setting [5]), 843 nM.

`CC(C)Cc1nnc(-c2ccc3[nH]cc(-c4nccc(C5CC5)n4)c3c2)o1` [Example 51, 2-(3-(4-cyclopropylpyrimidin-2-yl)-1H-indol-5-yl)-5-isobutyl-1,3,4-oxadiazole]: the values for the IC50 in experiment [1] (setting [3]) and in experiment [2] (Pim-2 enzyme assay) were 92.5 nM and 30.8 nM, respectively.

Regarding `CC(C)(C)Nc1nnc(-c2ccc3[nH]cc(-c4ncc(C(N)=O)s4)c3c2)o1` [Example 277, 2-(5-(5-(tert-butylamino)-1,3,4-oxadiazol-2-yl)-1H-indol-3-yl)-1,3-thiazole-5-carboxamide], the IC50 in experiment [1] (setting [4]) was 58.2 nM; in experiment [2] (setting [5]), 393 nM.

`CC(C)Nc1nnc(-c2ccc3[nH]cc(NC(=O)c4ccncc4)c3c2)o1` [Example 304, N-(5-(5-((1-methylethyl)amino)-1,3,4-oxadiazol-2-yl)-1H-indol-3-yl)-4-pyridinecarboxamide]: the IC50 in experiment [1] (setting [4]) was determined as 70 nM; in experiment [2] (setting [5]), 115 nM.

For `CC(C)Oc1cncc(-c2c[nH]c3ccc(-c4noc(N)n4)cc23)n1` [Example 71, 3-(3-(6-isopropoxypyrazin-2-yl)-1H-indol-5-yl)-1,2,4-oxadiazol-5-amine], the figures for the IC50 in experiment [1] (setting [3]) and in experiment [2] (Pim-2 enzyme assay) were 69.5 nM and 538 nM, respectively.

Turning to `CC1(C)COCCN1c1nnc(-c2ccc3[nH]cc(-c4cncc(C5CC5)n4)c3c2)o1` [Example 253, 3-(6-cyclopropyl-2-pyrazinyl)-5-(5-(3,3-dimethyl-4-morpholinyl)-1,3,4-oxadiazol-2-yl)-1H-indole], the results for the IC50 in experiment [1] (setting [3]) and in experiment [2] (Pim-2 enzyme assay) were 26.7 nM and 141 nM, respectively.

For the compound `CC(C)Nc1nnc(-c2ccc3[nH]cc(-c4cncc(C(=O)N(C)C)c4)c3c2)o1` [Example 296, N,N-dimethyl-5-(5-(5-((1-methylethyl)amino)-1,3,4-oxadiazol-2-yl)-1H-indol-3-yl)-3-pyridinecarboxamide], the IC50 in experiment [1] (setting [4]) and in experiment [2] (setting [5]) was > 1000 nM throughout.

Turning to `CC(C)Oc1cccc(-c2c[nH]c3ccc(-c4nc(N)no4)cc23)n1` [Example 68, 5-(3-(6-isopropoxypyridin-2-yl)-1H-indol-5-yl)-1,2,4-oxadiazol-3-amine], the figures for the IC50 in experiment [1] (setting [3]) and in experiment [2] were 42.7 nM and 79.7 nM, respectively.

Take `CC(C)Nc1nnc(-c2ccc3[nH]cc(-c4ncc(C(N)=O)s4)c3c2)o1` [Example 276, 2-(5-(5-((1-methylethyl)amino)-1,3,4-oxadiazol-2-yl)-1H-indol-3-yl)-1,3-thiazole-5-carboxamide]: the IC50 in experiment [1] (setting [4]) stood at 111 nM; in experiment [2] (setting [5]), 315 nM.

As for `CCN(C)c1cnc(-c2c[nH]c3ccc(-c4nnc(N)s4)cc23)cn1` [Example 188, 5-(5-(5-amino-1,3,4-thiadiazol-2-yl)-1H-indol-3-yl)-N-ethyl-N-methyl-2-pyrazinamine], the values for the IC50 in experiment [1] (setting [3]) and in experiment [2] (Pim-2 enzyme assay) were 398 nM and 1220 nM, respectively.

For `COc1nc(-c2c[nH]c3ccc(-c4nnc(NC(C)C)o4)cc23)cc(=O)[nH]1` [Example 298, 2-methoxy-6-(5-(5-((1-methylethyl)amino)-1,3,4-oxadiazol-2-yl)-1H-indol-3-yl)-4(3H)-pyrimidinone], the figures for the IC50 in experiment [1] (setting [4]) and in experiment [2] (setting [5]) were 15.9 nM and 24.4 nM, respectively.

On to `CC(C)c1ccnc(-c2c[nH]c3ccc(-c4nnc(NCC#N)o4)cc23)n1` [Example 45, 2-((5-(3-(4-isopropylpyrimidin-2-yl)-1H-indol-5-yl)-1,3,4-oxadiazol-2-yl)amino)acetonitrile], for which the IC50 was 3.83 nM in experiment [1] (setting [3]) and 2.83 nM in experiment [2] (Pim-2 enzyme assay).

Take `CCc1nc(-c2c[nH]c3ccc(-c4nnc(NC(C)(C)C)o4)cc23)ncc1F` [Example 57, N-tert-butyl-5-(3-(4-ethyl-5-fluoropyrimidin-2-yl)-1H-indol-5-yl)-1,3,4-oxadiazol-2-amine]: the values for the IC50 in experiment [1] (setting [3]) and in experiment [2] (Pim-2 enzyme assay) were 5.79 nM and 21 nM, respectively.

Regarding `COc1nc(-c2c[nH]c3ccc(-c4nnc(NC(C)C)o4)cc23)nc(C)c1F` [Example 260, 5-(3-(5-fluoro-4-methoxy-6-methyl-2-pyrimidinyl)-1H-indol-5-yl)-N-(1-methylethyl)-1,3,4-oxadiazol-2-amine], the IC50 in experiment [1] (setting [3]) was found to be 159 nM; in experiment [2] (Pim-2 enzyme assay), 106 nM.

Consider `CC(C)Nc1nnc(-c2ccc3[nH]cc(-c4ccc(C(N)=O)cc4F)c3c2)o1` [Example 290, 3-fluoro-4-(5-(5-(isopropylamino)-1,3,4-oxadiazol-2-yl)-1H-indol-3-yl)benzamide], for which the IC50 turned out to be 69.6 nM in experiment [1] and 238 nM in experiment [2] (setting [5]).

In the case of `CC(C)Nc1nnc(-c2ccc3[nH]cc(-c4cccc(C(=O)N(C)C)n4)c3c2)o1` [Example 292, N,N-dimethyl-6-(5-(5-((1-methylethyl)amino)-1,3,4-oxadiazol-2-yl)-1H-indol-3-yl)-2-pyridinecarboxamide], the IC50 in experiment [1] (setting [4]) came out at 496 nM; in experiment [2] (setting [5]), 541 nM.

In the case of `CNc1nnc(-c2ccc3[nH]cc(-c4nccc(-c5ccccc5)n4)c3c2)s1` [Example 131, N-methyl-5-(3-(4-phenyl-2-pyrimidinyl)-1H-indol-5-yl)-1,3,4-thiadiazol-2-amine], the IC50 in experiment [1] (setting [3]) was determined as 88.2 nM; in experiment [2] (Pim-2 enzyme assay), 35.8 nM.

Regarding `Fc1cccc(Nc2nnc(-c3ccc4[nH]cc(-c5nccc(C6CC6)n5)c4c3)o2)c1` [Example 269, 5-(3-(4-cyclopropyl-2-pyrimidinyl)-1H-indol-5-yl)-N-(3-fluorophenyl)-1,3,4-oxadiazol-2-amine], the IC50 came out at 364 nM in experiment [1] (setting [3]) and 450 nM in experiment [2] (Pim-2 enzyme assay).

Turning to `CC(C)Nc1nc(-c2ccc3[nH]cc(-c4cncc(OC(C)C)n4)c3c2)no1` [Example 73, 3-(3-(6-isopropoxypyrazin-2-yl)-1H-indol-5-yl)-N-isopropyl-1,2,4-oxadiazol-5-amine], the IC50 was determined as 45.9 nM in experiment [1] (setting [3]) and 504 nM in experiment [2].

In the case of `CC(C)Cc1nnc(-c2ccc3[nH]cc(-c4cncc(C5CC5)n4)c3c2)o1` [Example 265, 3-(6-cyclopropyl-2-pyrazinyl)-5-(5-(2-methylpropyl)-1,3,4-oxadiazol-2-yl)-1H-indole], the results for the IC50 in experiment [1] and in experiment [2] (Pim-2 enzyme assay) were 28.6 nM and 51 nM, respectively.

As to `Nc1nnc(-c2ccc3[nH]cc(-c4ccccc4F)c3n2)o1` [Example 9, 5-(3-(2-fluorophenyl)-1H-pyrrolo[3,2-b]pyridin-5-yl)-1,3,4-oxadiazol-2-amine], the IC50 in experiment [1] (setting [3]) is 644 nM; in experiment [2] (Pim-2 enzyme assay) it was 717 nM.

Turning to `CC(C)(C)Nc1nnc(-c2ccc3[nH]cc(-c4nccc(C(N)=O)n4)c3c2)o1` [Example 273, 2-(5-(5-(tert-butylamino)-1,3-4-oxadiazol-2-yl)-1H-indol-3-yl)-4-pyrimidinecarboxamide], the IC50 was found to be 11.8 nM in experiment [1] (setting [3]) and 28.5 nM in experiment [2] (Pim-2 enzyme assay).
